Holding throughout (assay type): cell-based
Experiment [1] concerns freshly isolated murine distal total epithelial cells. The experiment in a line: 3D organoid culture of freshly isolated murine distal total epithelial cells. From the text: FIG. 1. Experimental design. Preconditioning of donor cells, including addition of small molecules such as ROCK inhibitor, pifithrin α, or combined together, and generation of organoids.
FIG. 3. […] Addition of the TGF-β inhibitor, SB 431542 to the culture medium increases the % colony forming efficiency of freshly isolated murine lung epithelial cells. Addition of Pifithrin α causes an increase in organoids size, while addition of ROCKi causes an increase in the colony forming efficiency.
FIG. 13. Effect of p53 and ROCKi inhibition on murine freshly isolated distal total epithelial cells in (+SB431542). Addition of both ROCKi and Pifithrin alpha (in presence of SB431542) increases the colony forming efficiency of freshly isolated murine distal total epithelial cells (isolated from the lung without trachea). […] Pifithrin alpha also causes an increase in the size of the organoids (C). […] The drop in mean diameter of the Pifithrin alpha+ROCKi group is likely due to space constraints because of the large number of organoids per well.
Further described herein is a cell culture including a quantity of human stem cells, or stem cell derived cells in a cell culture media including at least one molecule including: a RHO-kinase (ROCK) inhibitor, SMAD inhibitor, and p53 inhibitor. In other embodiments, the RHO-kinase inhibitor is Y27632 and the p53 inhibitor is Pifithrin α. In other embodiments, the stem cells are adult stem cells. In other embodiments, the stem cell derived cells are lung epithelial cells. In various embodiments, the aforementioned inhibitors are at a concentration of 0.1-1 uM, 1-5 uM, 5-10 uM, 10-25 uM, 25-50 uM, or 50 uM or more. In various embodiments, the p53 inhibitor is Pifithrin-alpha. For example, this includes a media formulated as follows: 5 mL FBS, 500 uL ITS (100×), 50 uL Fungizone, 500 uL Pen/Strep (100×), DMEM/F12 up to 50 mL, 5 uL SB431542, Pifithrin-alpha 10 uM, ROCKi (Y-27632 dihydrochloride)—10 uM. Also described herein is a quantity of organoids including cells made by the aforementioned methods. In various embodiments, the organoids include proximal and/or distal cells. In various embodiments, the distal cells are alveolar type II progenitors and/or Scgb1a1 positive club progenitor cells.

Experiment [2] has as its system freshly isolated murine proximal total epithelial cells. Put plainly: Organoid culture of murine tracheal progenitor (basal) cells. The method, then:
FIG. 18. Effect of ROCK and P53 inhibition on murine tracheal progenitor (basal) cells. Addition of both ROCKi (in presence of SB431542) increases the colony forming efficiency of freshly isolated murine proximal total epithelial cells (isolated from the murine trachea).
Distal progenitor cells were cultured as 3D organoids for 14 days in presence of Pifithrin-alpha, ROCKi and SB431542 followed by culture for 7 days in media without all three inhibitors. […] Addition of ROCKi (in presence of SB431542) increases the colony forming efficiency of freshly isolated club cells (regional stem cells which maintain certain cell types in the bronchiolar epithelium) whereas addition of Pifithrin alpha (in presence of SB431542) increases the size of Scgb1a1-derived organoids. Addition of both ROCKi (in presence of SB431542) increases the colony forming efficiency of freshly isolated murine proximal total epithelial cells (isolated from the murine trachea).

The subject of experiment [3] is freshly isolated alveolar type II cells. The experiment in a line: Organoid culture of lineage labelled murine alveolar type II cells. The following applies: GFP+ alveolar type II cells, in presence of SB431542. The text has this: FIG. 15. Effect of ROCK and P53 inhibition on lineage labelled murine alveolar type II cells. GFP^+ alveolar type II cells were isolated from tamoxifen treated SPC-CreER/ROSARG mice. Addition of both ROCKi and Pifithrin alpha (in presence of SB431542) increases the colony forming efficiency of freshly isolated alveolar typeII cells (regional stem cells which maintain the epithelium of the air sacs in the lung). The effect is synergistic for their combined use, similar to that seen for total distal epithelial cells in the previous figures.
ROCKi increases the colony forming efficiency when murine distal total epithelial cells (isolated from the lung without trachea) are pre-cultured on collagen coated plates for 24 hrs prior after initial isolation. The effect on size is more pronounced when cells are precultured for 24 hrs on collagen coated plates after initial isolation. The drop in CFE in the Pifithrin alpha+ROCKi group is likely due space and nutrient availability constraints due to the large number of organoids per well. Addition of both ROCKi and Pifithrin alpha (in presence of SB431542) increases the colony forming efficiency of freshly isolated alveolar type II cells (regional stem cells which maintain the epithelium of the air sacs in the lung). The effect is synergistic for their combined use, similar to that seen for total distal epithelial cells in the previous figures.

Experiment [4] relates to lung stem cells. The experiment in a line: In vitro organoid assays of clonal expansion of lung stem cells. The note with it: combination of p53 inhibitor with ROCK inhibitor (and TGFb inhibitors). From the text: Methods have been developed for expansion of stem cells using a combination of irradiated NIH-3T3 fibroblasts and a ROCK inhibitor (Y27632). […] Preliminary studies by the Inventors have shown that pharmacologic inhibition of p53 results in greater clonal expansion of lung stem cells compared to use of ROCK inhibitor Y27632 alone. Effects of combined treatment with Pifithrin-α and Y27632 are additive. Future studies will determine reversibility of Pifirthrin-α effects on stem cell expansion and differentiation. This includes: 1) validating that the observed increase in clonogenic potential of lung stem cells is the result of stem cell expansion, 2) application of the aforementioned pharmacologic intervention during in vitro stem cell expansion enhances their viability following cryopreservation, 3) that application of the aforementioned pharmacologic intervention during in vitro stem cell expansion enhances to functionally engraft into lung tissue following orthotopic lung transplantation, 4) that stem cells expanded under these conditions retain full capacity for differentiation into specialized lung epithelial cell types and 5) that established culture conditions can be used to expand human lung stem cells. […]

[5] abbreviates: freshly isolated cells, in presence of SB431542 (FIG. 13).

SMILES strings stand for the structures.

As for `Cc1ccc(C(=O)Cn2c3c(sc2=N)CCCC3)cc1` [Pifithrin α], in experiment [1] (setting [5]), the colony forming efficiency entry is reported as “increases” and the “size of the organoids (mean diameter)” value is given as “increase”. Further, in experiment [1] (freshly isolated distal cells, FIG. 13), the “survival and proliferation of the stem cells (inferred from CFE and organoid size)” value is “increase survival and proliferation”. For the same molecule, the organoids size result in experiment [1] (freshly isolated murine lung epithelial cells (FIG. 3)) is “increase”. The colony forming efficiency result in experiment [2] (cells isolated from the murine trachea, in presence of SB431542) is “does not show a significant effect”. Also, in experiment [2] (comparison of proximal and distal progenitor cell types), the “survival of proximal and distal progenitors (inferred from colony forming ability)” value is reported as “specific to distal stem cells”. In addition, in experiment [3], the colony forming efficiency entry was “increases” and the “size of the alveolar organoids” value was “does not increase”. Moreover, the “effect of combined use on clonal expansion / clonogenic potential of lung stem cells” value in experiment [4] is recorded as “additive”.

The values above are taken from US20210147811A1, “METHODS FOR IN VITRO EXPANSION OF ADULT TISSUE STEM CELLS” (CEDARS-SINAI MEDICAL CENTER, priority 2018, published 2021).
